Experimental findings from US20260176265A1 (Cancer Research Technology Limited, priority 2022, published 2026) are described below.

Each structure is given as a SMILES string.

In test [1] the target is CtermHisTag-mEGFR Triple Mutant - C797S, L858R, T790M (Homo sapiens, UniProt P00533, C797S/L858R/T790M). As to the kind of experiment: TR-FRET probe displacement assay, EGFR triple mutant. Type of test: binding. The note with it: T790M 1.25 nM, probe 100 nM, 30 mins room temperature. On the procedure: (§1) Compounds (dissolved to 100 mM in DMSO) were dispensed into black low volume 384 well assay plates (Corning) over a final concentration range of 100000, 30000, 10000, 3000, 1000, 300, 100, 30, 10, and 3 nM using an Echo 550 (Labcyte). Positive control compound and DMSO as a negative control were dispensed into the first and last well, respectively. […]. Plates were read using a PheraStar FS (BMG Labtech) at Ex337 nm Ex490/520 nm. The data were analysed using Graphpad Prism/Dotmatics Studies Software. Assays conducted in technical replicate and repeated as a biological duplicate.
Background: In TR-FRET formats the signal depends on donor and acceptor labels being close together.

For test [2], the target named is CtermHisTag-mEGFR Wild type (Homo sapiens, UniProt P00533). Briefly: TR-FRET probe displacement assay, EGFR wild type. Type of test: binding. The note with it: EGFR wild type 1.25 nM, probe 100 nM, 30 mins room temperature. How it is done: as §1
The target in test [3] is T1, Phospho-EGFR (Tyr1068) in H1975 cells (Homo sapiens, UniProt P00533, L858R/T790M).
T1 construct: host or cells: H1975
As to the kind of experiment: HTRF pEGFR/total EGFR assay in H1975 cells. Type of test: cell-based. The note with it: compound 3 hours, ratio pEGFR/total EGFR. How it is done: H1975 cells (ATCC CRL-5908) were plated at 20,000 cells per well in 96 well plates and placed at 37° C. 5% CO2. Once adhered (after 24h) cells were treated with compounds dissolved in DMSO at a final concentration of 0.1% DMSO in media. Compounds were diluted in media then added to cells for 3 hours in duplicate. Compound and media were removed from the cells, then 50ul of HTRF lysis buffer is added (lysis buffer was diluted from 4× stock to 1× in DI water, with 1% blocking agent also added). Cells were lysed on a plate shaker (2000 rpm) for 30 minutes at room temperature. pEGFR expression was monitored using the Cisbio Phospho-EGFR (Tyri068) cellular kit (64EG1 PEH). Total EGFR expression was monitored using the Cisbio Total EGFR cellular kit (64NG1 PEH) as per manufacturer's instructions. Fluorescence emission was read at two different wavelengths (665 nm and 620 nm) on a PheraStar. Results were calculated as ratio of pEGFR/total EGFR and then percentage of 0 uM control.

In test [4] the target is T2, Phospho-EGFR (Tyr1068) in H1975 C797S cells (Homo sapiens, UniProt P00533, C797S/L858R/T790M).
T2 construct: endogenous in cells; host or cells: H1975 C797S (CRISPR-edited in house from ATCC CRL-5908)
As to the kind of experiment: HTRF pEGFR/total EGFR assay in H1975 C797S cells. Type of test: cell-based. The conditions noted are these: H1975 C797S cells (CRISPR), compound 3 hours, ratio pEGFR/total EGFR. On the procedure:
H1975 C797S cells (ATCC CRL-5908) were genetically engineered by CRISPR editing of EGFR C797S in house and validated by NGS. Cells were plated at 20,000 cells per well in 96 well plates and placed at 37° C. 5% CO2. Once adhered (after 24h) cells were treated with compounds dissolved in DMSO at a final concentration of 0.1% DMSO in media. Compounds were diluted in media then added to cells for 3 hours in duplicate. Compound and media were removed from the cells, then 50 ul of HTRF lysis buffer was added (lysis buffer was diluted from 4× stock to 1× in DI water, with 1% blocking agent also added). Cells were lysed on a plate shaker (2000 rpm) for 30 minutes at room temperature. pEGFR expression was monitored using the Cisbio Phospho-EGFR (Tyr1068) cellular kit (64EG1PEH). Total EGFR expression was monitored using the Cisbio Total EGFR cellular kit (64NG1PEH) as per manufacturer's instructions. Fluorescence emission was read at two different wavelengths (665 nm and 620 nm) on a PheraStar. Results were calculated as ratio of pEGFR/total EGFR and then percentage of 0 uM control.

The target of test [5] is T3, Phospho-EGFR (Tyr1068) in A431 cells (Homo sapiens, UniProt P00533).
T3 construct: endogenous in cells; host or cells: A431
As to the kind of experiment: HTRF pEGFR/total EGFR assay in A431 cells (EGF stimulated). Type of test: cell-based. The conditions noted are these: compound 2.5 hours then 100 ng/ml EGF 30 mins, ratio pEGFR/total EGFR. How it is done:
Cells were plated at 20,000 cells per well in 96 well plates and placed at 37° C. 5% CO2. Once adhered (after 24h) cells were treated with compounds dissolved in DMSO at a final concentration of 0.1% DMSO in media. Compounds were diluted in media then added to cells for 2.5 hours in duplicate, 100 ng/ml EGF (ThermoFisher, PHG0311 was is added to all compound treated cells as well as a control for 30 mins. Compound and media were removed from the cells, then 50ul of HTRF lysis bufferwas added (lysis bufferwas diluted from 4× stock to 1× in DI water, with 1% blocking agent also added). Cells were lysed on a plate shaker (2000 rpm) for 30 minutes at room temperature. pEGFR expression was monitored using the Cisbio Phospho-EGFR (Tyr1068) cellular kit (64EG1PEH). Total EGFR expression was monitored using the Cisbio Total EGFR cellular kit (64NG1PEH) as per manufacturer's instructions. Fluorescence emission was read at two different wavelengths (665 nm and 620 nm) on a PheraStar. Results were calculated as ratio of pEGFR/total EGFR and then percentage of OuM control.

T3 sequence (P00533 25-1210): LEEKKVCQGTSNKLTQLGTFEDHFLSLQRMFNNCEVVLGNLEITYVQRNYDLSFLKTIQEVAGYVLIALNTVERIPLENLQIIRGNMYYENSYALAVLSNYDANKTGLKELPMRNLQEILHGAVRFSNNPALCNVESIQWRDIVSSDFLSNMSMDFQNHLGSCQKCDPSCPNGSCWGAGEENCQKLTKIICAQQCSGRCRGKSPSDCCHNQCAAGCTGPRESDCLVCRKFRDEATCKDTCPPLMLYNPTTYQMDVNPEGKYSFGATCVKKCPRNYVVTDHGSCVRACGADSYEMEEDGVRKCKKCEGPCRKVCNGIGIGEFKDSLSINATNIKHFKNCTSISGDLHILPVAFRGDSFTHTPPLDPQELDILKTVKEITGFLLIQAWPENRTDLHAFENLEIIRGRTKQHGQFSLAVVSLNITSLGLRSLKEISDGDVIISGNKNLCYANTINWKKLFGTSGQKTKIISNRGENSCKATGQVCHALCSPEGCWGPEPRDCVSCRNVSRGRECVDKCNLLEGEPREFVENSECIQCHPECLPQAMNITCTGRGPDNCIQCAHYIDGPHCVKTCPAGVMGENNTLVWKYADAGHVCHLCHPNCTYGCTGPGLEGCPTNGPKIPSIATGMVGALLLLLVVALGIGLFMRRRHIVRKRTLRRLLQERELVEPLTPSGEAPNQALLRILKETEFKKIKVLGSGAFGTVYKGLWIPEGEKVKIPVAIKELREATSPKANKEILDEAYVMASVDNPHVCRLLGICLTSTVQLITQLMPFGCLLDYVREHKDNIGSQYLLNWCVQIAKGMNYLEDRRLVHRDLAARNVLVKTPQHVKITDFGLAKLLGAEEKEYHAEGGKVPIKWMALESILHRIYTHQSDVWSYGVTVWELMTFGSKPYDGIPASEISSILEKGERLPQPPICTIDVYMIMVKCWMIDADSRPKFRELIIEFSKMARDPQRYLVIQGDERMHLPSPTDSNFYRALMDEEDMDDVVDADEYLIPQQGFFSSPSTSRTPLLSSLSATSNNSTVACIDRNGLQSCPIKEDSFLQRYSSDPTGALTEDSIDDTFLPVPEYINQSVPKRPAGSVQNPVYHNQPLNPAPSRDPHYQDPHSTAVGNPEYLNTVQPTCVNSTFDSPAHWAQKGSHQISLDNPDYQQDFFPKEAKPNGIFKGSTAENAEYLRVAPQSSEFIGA
Sequence of CtermHisTag-mEGFR Wild type (P00533 25-1210): as above
T2 sequence (P00533 25-1210 T790M/C797S/L858R): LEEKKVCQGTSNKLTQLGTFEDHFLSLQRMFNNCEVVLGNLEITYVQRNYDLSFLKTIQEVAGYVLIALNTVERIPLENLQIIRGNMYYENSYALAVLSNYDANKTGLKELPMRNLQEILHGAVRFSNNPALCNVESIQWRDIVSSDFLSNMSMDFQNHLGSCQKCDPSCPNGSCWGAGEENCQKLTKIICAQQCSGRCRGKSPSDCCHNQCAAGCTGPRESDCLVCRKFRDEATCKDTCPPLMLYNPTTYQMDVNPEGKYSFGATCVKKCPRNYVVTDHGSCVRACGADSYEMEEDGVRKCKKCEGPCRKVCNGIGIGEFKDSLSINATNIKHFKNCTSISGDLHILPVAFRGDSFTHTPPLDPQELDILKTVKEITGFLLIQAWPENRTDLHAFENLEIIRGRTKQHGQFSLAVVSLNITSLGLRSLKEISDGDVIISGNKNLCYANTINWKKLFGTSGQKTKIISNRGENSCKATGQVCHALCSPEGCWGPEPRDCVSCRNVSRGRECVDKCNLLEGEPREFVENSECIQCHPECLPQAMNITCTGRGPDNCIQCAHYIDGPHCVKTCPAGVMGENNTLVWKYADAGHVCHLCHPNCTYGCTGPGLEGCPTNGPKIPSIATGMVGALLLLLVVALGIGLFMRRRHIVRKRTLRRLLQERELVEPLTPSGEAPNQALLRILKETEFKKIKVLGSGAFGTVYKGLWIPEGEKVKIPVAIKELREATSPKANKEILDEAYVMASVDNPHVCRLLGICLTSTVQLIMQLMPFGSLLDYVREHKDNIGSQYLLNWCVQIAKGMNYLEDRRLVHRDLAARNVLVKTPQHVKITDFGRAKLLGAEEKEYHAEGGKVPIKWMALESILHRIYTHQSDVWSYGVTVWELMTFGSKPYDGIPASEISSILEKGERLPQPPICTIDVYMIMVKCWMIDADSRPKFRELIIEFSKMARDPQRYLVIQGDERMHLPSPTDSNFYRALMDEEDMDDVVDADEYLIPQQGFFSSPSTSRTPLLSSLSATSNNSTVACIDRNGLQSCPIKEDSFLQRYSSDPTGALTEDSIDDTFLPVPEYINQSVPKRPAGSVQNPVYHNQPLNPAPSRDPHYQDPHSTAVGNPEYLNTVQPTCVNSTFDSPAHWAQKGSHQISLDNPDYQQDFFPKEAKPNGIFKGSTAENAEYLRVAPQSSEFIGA
Sequence of CtermHisTag-mEGFR Triple Mutant - C797S, L858R, T790M (P00533 25-1210 T790M/C797S/L858R): as above

For orientation: IC50 means the point on the concentration scale where inhibition reaches its midpoint. For `C#Cc1cc(N2C(=O)OCC2COC)nc2nc(Nc3ccc(N4CCN(C)CC4)cc3)ncc12` (centres unmarked) [Example 116, 3-(5-Ethynyl-2-{[4-(4-methylpiperazin-1-yl)phenyl]amino}pyrido[2,3-d]pyrimidin-7-yl)-4-(methoxymethyl)-1,3-oxazolidin-2-one], the IC50 was under 0.02 µM in test [1]; 1 to 10 µM in test [2]; under 0.5 µM in test [3]; 0.5 to 1 µM in test [4]; over 3 µM in test [5].
In the case of `C#Cc1cc(NC(=O)NC2CCCC2)nc2nc(Nc3cccc(N(C)[C@H]4C[C@@H](CS(C)(=O)=O)C4)c3)ncc12` [Example 119], the half-inhibitory concentration (IC50) in test [1] is 0.02 to 0.1 µM; in test [2] it was under 1 µM; in test [3], under 0.5 µM; in test [4], under 0.5 µM.
On to `C#Cc1cc(OCCc2ccccc2)nc2nc(Nc3ccc(N4CCN(C)CC4)cc3)ncc12` [Example 21, 5-ethynyl-N-[4-(4-methylpiperazin-1-yl)phenyl]-7-(2-phenylethoxy)pyrido[2,3-d]pyrimidin-2-amine], for which the IC50 in test [1] was 0.1 to 1 µM; in test [2], over 10 µM; in test [3], over 3 µM; in test [4], over 3 µM; in test [5] it was over 3 µM.
For the molecule `C#Cc1cc(NC(=O)NC2CCCC2)nc2nc(Nc3ccc(OCCN(C)C)cc3)ncc12` [Example 79, 3-Cyclopentyl-1-[2-((4-[2-(dimethylamino)ethoxyl]phenylamino)-5-ethynyl)pyrido[2,3-d]pyrimidin-7-yl]urea], the 50% inhibitory concentration (IC50) in test [1] is under 0.02 µM; in test [2], under 1 µM; in test [3] it was under 0.5 µM; in test [4], under 0.5 µM; in test [5], over 3 µM.
Take `C#Cc1cc(N2C(=O)N(C)CC23CCCC3)nc2nc(Nc3ccc(N(C)C(C)=O)cc3)ncc12` [Example 105, N-{4-[(5-Ethynyl-7-{3-methyl-2-oxo-1,3-diazaspiro[4.4]nonan-1-yl}pyrido[2,3-d]pyrimidin-2-yl)amino]phenyl}-N-methylacetamide]: the 50% inhibitory concentration (IC50) is 0.1 to 1 µM in test [1]; over 10 µM in test [2]; over 3 µM in test [3]; over 3 µM in test [4]; over 3 µM in test [5].
`C#Cc1cc(OC)nc2nc(Nc3cccc(CN(C)C(C)=O)c3)ncc12` [Example 7, N-{[3-({5-ethynyl-7-methoxypyrido[2,3-d]pyrimidin-2-yl}amino)pheny]methyl}-N-methylacetamide]: the IC50 is 0.1 to 1 µM in test [1]; over 10 µM in test [2]; over 3 µM in test [3]; over 3 µM in test [4]; over 3 µM in test [5].
As to `C#Cc1cc(N2C(=O)N(C)CC23CCCC3)nc2nc(Nc3ccc(N(C)C(=O)CN(C)C)cc3)ncc12` [Example 106, 2-(Dimethylamino)-N-{4-[(5-ethynyl-7-{3-methyl-2-oxo-1,3-diazaspiro[4.4]nonan-1-yl}pyrido[2,3-d]pyrimidin-2-yl)amino}phenyl]-N-methylacetamide], the IC50 in test [1] is 0.1 to 1 µM; in test [2] it was 1 to 10 µM; in test [3], over 3 µM; in test [4], 1 to 3 µM; in test [5], 1 to 3 µM.
Turning to `C#Cc1cc(NC(=O)N[C@H]2CCN(C(C)=O)C2)nc2nc(Nc3ccc(N4CCN(C)CC4)cc3)ncc12` [Example 53, 3-[(3S)-1-acetylpyrrolidin-3-yl]-1-(5-ethynyl-2-{[4-(4-methylpiperazin-1-yl)phenyl]amino}pyrido[2,3-d]pyrimidin-7-yl)urea], the IC50 in test [1] is under 0.02 µM; in test [2], under 1 µM; in test [3], 1 to 3 µM; in test [4], over 3 µM; in test [5], over 3 µM.
Regarding `C#Cc1cc(OCc2ccccc2)nc2nc(Nc3ccc(N4CCN(C)CC4)cc3)ncc12` [Example 20, 7-(benzyloxy)-5-ethynyl-N-[4-(4-methylpiperazin-1-yl)phenyl]pyrido[2,3-d]pyrimidin-2-amine], the IC50 in test [1] was 0.1 to 1 µM; in test [2] it was over 10 µM; in test [3], over 3 µM; in test [4], over 3 µM; in test [5], over 3 µM.
`C#Cc1cc(NC(=O)N(C)C)nc2nc(Nc3ccc(N4CCN(C)CC4)cc3)ncc12` [Example 37, 1-(5-ethynyl-2-{[4-(4-methylpiperazin-1-yl)phenyl]amino}pyrido[2,3-d]pyrimidin-7-yl)-3,3-dimethylurea]: the concentration for half-maximal inhibition (IC50) in test [1] was 0.1 to 1 µM; in test [2], over 10 µM; in test [3], over 3 µM; in test [4] it was over 3 µM; in test [5], over 3 µM.
As to `C#Cc1cc(OC)nc2nc(Nc3cccc(CN(C)C4CCC4)c3)ncc12` [Example 4, N-(3-{[cyclobutyl(methyl)amino]methyl}phenyl)-5-ethynyl-7-methoxypyrido[2,3-d]pyrimidin-2-amine], the half-inhibitory concentration (IC50) in test [1] was 0.1 to 1 µM; in test [2], over 10 µM; in test [3], over 3 µM; in test [4], over 3 µM; in test [5] it was over 3 µM.
With `C#Cc1cc(OC)nc2nc(Nc3ccc(N(C)CCN(C)C)cc3)ncc12` [Example 2, N^1-(2-(dimethylamino)ethyl)-N^4-(5-ethynyl-7-methoxypyrido[2,3-d]pyrimidin-2-yl)-N^1-methylbenzene-1,4-diamine], the IC50 in test [1] is 0.1 to 1 µM; in test [2] it was over 10 µM; in test [3] it was 1 to 3 µM; in test [4] it was over 3 µM; in test [5], over 3 µM.
Turning to `C#Cc1cc(OCc2cscn2)nc2nc(Nc3ccc(N4CCN(C)CC4)cc3)ncc12` [Example 13, 5-ethynyl-N-[4-(4-methylpiperazin-1-yl)phenyl]-7-(1,3-thiazol-4-ylmethoxy)pyrido[2,3-d]pyrimidin-2-amine], the half-inhibitory concentration (IC50) in test [1] was 0.02 to 0.1 µM; in test [2], over 10 µM; in test [3], 1 to 3 µM; in test [4], over 3 µM; in test [5] it was over 3 µM.
For `C#Cc1cc(NC(=O)NC2CCCC2)nc2nc(Nc3cccc(N(C)[C@H]4CC[C@@H](CS(C)(=O)=O)CC4)c3)ncc12` [Example 120], the IC50 in test [1] was 0.02 to 0.1 µM; in test [2], under 1 µM; in test [3] it was under 0.5 µM; in test [4], under 0.5 µM.
As for `C#Cc1cc(NC(=O)NC2CCCC2)nc2nc(Nc3cccc(N(C)[C@H]4CC[C@H](CS(C)(=O)=O)CC4)c3)ncc12` [Example 121], the IC50 in test [1] was 0.02 to 0.1 µM; in test [2] it was under 1 µM; in test [3] it was 0.5 to 1 µM; in test [4], under 0.5 µM.
Regarding `C#Cc1ccnc2nc(Nc3ccccc3OC)ncc12` [Example 1, 5-ethynyl-N-(2-methoxyphenyl)pyrido[2,3-d]pyrimidin-2-amine], the IC50 in test [1] was 0.1 to 1 µM; in test [2] it was over 10 µM.
